Data as given in US6451576B1, “Sesquiterpene synthases from grand fir (Abies grandis), and methods of use” (Washington State University Research Foundation, priority 1998, dated 2002).

How the values were obtained:
[1] = target: T1, γ-humulene synthase (SEQ ID No:24) (Abies grandis, UniProt O64405); test: Kinetic parameters, metal ion requirement and substrate specificity of recombinant γ-humulene synthase; type: biochemical
T1 construct: For further subcloning of the amplified, full-length cDNA into the pSBETa vector for high-level expression, the pGAG5 insert was amplified; made in house; host or cells: E. coli XL1-Blue/pGAG5 or E. coli BL21(DE3)/pSBAG5
T1 sequence (O64405 1-593): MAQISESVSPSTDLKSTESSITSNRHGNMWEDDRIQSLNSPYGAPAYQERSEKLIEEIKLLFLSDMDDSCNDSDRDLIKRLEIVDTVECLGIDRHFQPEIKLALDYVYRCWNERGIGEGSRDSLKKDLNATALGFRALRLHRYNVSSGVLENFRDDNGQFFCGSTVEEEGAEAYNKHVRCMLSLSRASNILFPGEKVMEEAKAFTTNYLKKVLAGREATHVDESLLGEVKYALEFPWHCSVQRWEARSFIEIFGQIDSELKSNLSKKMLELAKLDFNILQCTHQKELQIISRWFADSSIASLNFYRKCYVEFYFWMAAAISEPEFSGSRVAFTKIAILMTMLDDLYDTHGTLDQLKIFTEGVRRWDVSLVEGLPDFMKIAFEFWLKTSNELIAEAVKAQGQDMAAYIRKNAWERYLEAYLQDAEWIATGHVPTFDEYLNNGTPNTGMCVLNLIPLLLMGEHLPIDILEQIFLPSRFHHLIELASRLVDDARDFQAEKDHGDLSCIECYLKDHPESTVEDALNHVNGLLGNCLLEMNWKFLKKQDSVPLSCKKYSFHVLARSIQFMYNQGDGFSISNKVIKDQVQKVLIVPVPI
Method: (§1) The assay for recombinant sesquiterpene synthase (cyclase) activity was performed in 1 ml of buffer (extraction buffer without MnCl2 or the polymeric adsorbents) containing 3.5 μM [1-^3H]farnesyl diphosphate and the total protein extracted from a 5 ml bacterial culture to produce 10^5-10^6 dpm of product in 2 h at 31° C. The incubation mixture was overlaid with 1 ml pentane to trap volatile products. After incubation, the reaction mixture was extracted with pentane (3×1 ml) and the combined extract was passed through a MgSO4-silica gel column to provide the terpene hydrocarbon fractions as before. The columns were subsequently eluted with 3×1 ml of ether to collect any oxygenated products, and an aliquot of each fraction was taken for liquid scintillation counting to determine conversion rate. The monoterpene synthase and diterpene synthase activity assays were similarly performed as described in detail elsewhere (LaFever, R. E., et al., (1994) Arch. Biochem. Biophys. 313, 139-149; Bohlmann, J., et al., (1997) J. Biol. Chem. 272, 21784-21792; Lewinsohn, E., et al., (1991) Plant Physiol. 96, 38-43).
(§2) The substrate specificity and other kinetic. parameters of γ-humulene synthase (SEQ ID No:24) and δ-selinene synthase (SEQ ID No:20) were investigated in order to confirm the identification and classification of these enzymes. […] Neither of these sesquiterpene synthases requires K^+ or other monovalent cation for activity.
(§3) Substrate specificity of δ-selinene synthase (SEQ ID No:20) and γ-humulene synthase (SEQ ID No:24) was evaluated by comparing farnesyl diphosphate (C15) to geranyl diphosphate (C10) and geranylgeranyl diphosphate (C20) at saturation as precursors of the respective terpene olefins. […] The identities of the monoterpene products produced by the sesquiterpene synthases were determined by GLC-MS and are set forth in FIG. 4.

[2] = target: T2, δ-selinene synthase (SEQ ID No:20) (Abies grandis, UniProt O64404); test: Kinetic parameters, metal ion requirement and substrate specificity of recombinant δ-selinene synthase; type: biochemical
T2 construct: made in house; host or cells: E. coli XL1-Blue/pGAG4 or E. coli BL21(DE3)/pSBAG4
T2 sequence (O64404 1-581): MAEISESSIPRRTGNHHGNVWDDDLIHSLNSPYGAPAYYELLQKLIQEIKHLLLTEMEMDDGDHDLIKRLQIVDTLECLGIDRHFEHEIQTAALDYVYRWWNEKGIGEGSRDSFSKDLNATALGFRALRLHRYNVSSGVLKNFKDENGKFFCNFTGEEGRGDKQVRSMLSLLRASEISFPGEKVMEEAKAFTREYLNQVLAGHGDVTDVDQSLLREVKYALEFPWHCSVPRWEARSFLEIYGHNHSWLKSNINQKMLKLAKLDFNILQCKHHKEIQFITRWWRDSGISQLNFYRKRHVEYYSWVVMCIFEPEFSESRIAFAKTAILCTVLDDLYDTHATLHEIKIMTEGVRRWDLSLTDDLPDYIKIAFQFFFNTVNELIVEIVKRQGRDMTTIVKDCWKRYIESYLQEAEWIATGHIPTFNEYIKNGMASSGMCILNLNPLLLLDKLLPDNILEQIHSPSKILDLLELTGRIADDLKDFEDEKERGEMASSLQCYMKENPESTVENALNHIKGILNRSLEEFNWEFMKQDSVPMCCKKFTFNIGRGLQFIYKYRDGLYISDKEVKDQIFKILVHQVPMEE
Method: as §1, §2, §3

With `CC(C)=CCC/C(C)=C/COP(=O)(O)OP(=O)(O)O` [geranyl diphosphate, reference compound] the “olefin formation from substrate at saturation, compared with farnesyl diphosphate” value [1] was “roughly half the rate” and the “olefin formation from substrate at saturation, compared with farnesyl diphosphate” value [2] was “roughly half the rate”.

`CC(C)=CCC/C(C)=C/CC/C(C)=C/CC/C(C)=C/COP(=O)(O)OP(=O)(O)O` [geranylgeranyl diphosphate, reference compound] was tested, and the “olefin formation from substrate at saturation, compared with farnesyl diphosphate” value [1] was “failed to generate detectable olefinic products” and the “olefin formation from substrate at saturation, compared with farnesyl diphosphate” value [2] was “failed to generate detectable olefinic products”.
